pIC50: −log10 of the molar value. Structures can show the parent of a compound that is named as a salt.
biological target: T1, recombinant human secreted phospholipase A2 (Homo sapiens, UniProt P14555); test: chromogenic assay of recombinant human secreted phospholipase A2 inhibition; assay type: biochemical; details: diheptanoyl thio-PC substrate, pH 7.5, 40° C. for 30 minutes, absorbance at 405 nanometers, triplicate; read-out: Inhibition of human secreted PLA2 IC50 ± mean deviation
T1 sequence (P14555 21-144): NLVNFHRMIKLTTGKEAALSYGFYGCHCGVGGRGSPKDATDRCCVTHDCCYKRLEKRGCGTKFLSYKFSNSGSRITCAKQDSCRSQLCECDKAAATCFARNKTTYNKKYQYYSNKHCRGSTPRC
Excerpt: The following chromogenic assay procedure was used to identify and evaluate inhibitors of recombinant human secreted phospholipase A2. The assay described herein has been adapted for high volume screening using 96 well microtiter plates. A general description of this assay method is found in the article, “Analysis of Human Synovial Fluid Phospholipase A2 on Short Chain Phosphatidylcholine-Mixed Micelles: Development of a Spectrophotometric Assay Suitable for a Microtiterplate Reader”, by Laure J. Reynolds, Lori L. Hughes, and Edward A Dennis, Analytical Biochemistry, 204, pp. 190-197, 1992 (the disclosure of which is incorporated herein by reference):
REACTION BUFFER— • CaCl2.2H2O (1.47 g/L) • KCl (7.455 g/L) • Bovine Serum Albumin (fatty acid free)(1 g/L) • (Sigma A-7030, product of Sigma Chemical Co., St. Louis Mo., USA) • TRIS HCl (3.94 g/L) • pH 7.5 (adjust with NaOH)
ENZYME BUFFER— • 0.05 NaOAc.3H2O, pH 4.5 • 0.2 NaCl • Adjust pH to 4.5 with acetic acid
DTNB—5,5′-dithiobis-2-nitrobenzoic acid
RACEMIC DIHEPTANOYL THIO—PC
racemic 1,2-bis(heptanoylthio)-1,2-dideoxy-sn-glycero-3-phosphorylcholine
TRITON X-100™ prepare at 6.249 mg/ml in reaction buffer to equal […].
A measured volume of racemic dipheptanoyl thio PC supplied in chloroform at a concentration of 100 mg/ml is taken to dryness and redissolved in 10 millimolar
TRITON X-100™ nonionic detergent aqueous solution. Reaction Buffer is added to the solution, then DTNB to give the Reaction Mixture.
The reaction mixture thus obtained contains 1 mM diheptanoly thio-PC substrate, 0.29 mm Triton X-100™ detergent, and 0.12 mm DTMB in a buffered aqueous solution at pH 7.5.
• 1. Add 0.2 ml reaction mixture to all wells; • 2. Add 10 ul test compound (or solvent blank) to appropriate wells, mix 20 seconds; • 3. Add 50 nanograms of sPLA2 (10 microliters) to appropriate wells; • 4. Incubate plate at 40° C. for 30 minutes; • 5. Read absorbance of wells at 405 nanometers with an automatic plate reader.
All compounds were tested in triplicate. Typically, compounds were tested at a final concentration of 5 ug/ml. […] Lack of color development at 405 nanometers evidenced inhibition. Compounds initially found to be active were reassayed to confirm their activity and, if sufficiently active, IC50 values were determined. […] In all cases, % inhibition measured at 405 nanometers generated by enzyme reactions containing inhibitors relative to the uninhibited control reactions was determined. Each sample was titrated in triplicate and result values were averaged for plotting and calculation of IC50 values. IC50 were determined by plotting log concentration versus inhibition values in the range from 10-90% inhibition.

| Compound | pIC50 |
| --- | --- |
| CCc1c(C(=O)C(N)=O)c2c(OCC(=O)NS(=O)(=O)c3ccc(CCN)cc3)cccc2n1Cc1ccccc1 [Example 5, 1-benzyl-2-ethyl-4-(4-(2-aminoethyl)benzenesulfonamidoylmethyloxy)-indole-3-glyoxylamide, Hydrochloride Salt] | 7.80 |
| CCc1c(C(=O)C(N)=O)c2c(OCC(=O)NS(=O)(=O)C(F)(F)F)cccc2n1Cc1ccccc1 [Example 3, 1-benzyl-2-ethyl-4-trifluoromethanesulfonamidoylmethyloxy-indole-3-glyoxylamide] | 7.77 |
| CCc1c(C(=O)C(N)=O)c2c(OCC(=O)NS(=O)(=O)c3ccccc3)cccc2n1Cc1ccccc1 [Example 2, 1-benzyl-2-ethyl-4-benzenesulfonamidoylmethyloxy-indole-3-glyoxylamide] | 8.15 |

More lines, now with the values ahead:

| pIC50 | Compound |
| --- | --- |
| 7.92 | CCc1c(C(=O)C(N)=O)c2c(OCC(=O)NS(C)(=O)=O)cccc2n1Cc1ccccc1 [Example 1, 1-benzyl-2-ethyl-4-methanesulfonamidoylmethyloxy-indole-3-glyoxylamide] |
| 8.05 | CCc1c(C(=O)C(N)=O)c2c(OCC(=O)NS(=O)(=O)c3ccccc3C)cccc2n1Cc1ccccc1 [Example 4, 1-benzyl-2-ethyl-4-(2-methylbenzenesulfonamidoylmethyloxy)-indole-3-glyoxylamide] |

— patent US7026348B2, “Indole sPLA2 inhibitors” (Eli Lilly and Company, priority 1998, dated 2006)
